From patent US20120101169A1, “METHODS OF PROVIDING ANTICOAGULATION EFFECTS IN SUBJECTS” (Penwest Pharmaceuticals Co., priority 2010, published 2012)
Several values for one entry are separate records, joined by “and”; a condition that tells them apart may be missing. Equal entries are not always repeated. Where two headings read alike, the source gives them in different places. Marks after values point to notes of the source that are not given here.

Assays:
[1] = Single-dose ascending-dose pharmacokinetics of ATQ in healthy volunteers (Example 4); settings: for CL/F: fed conditions, mean
Method: Healthy adult male subjects were enrolled into 1 of 6 cohorts of 10 subjects, and randomly assigned to receive either alpha-tocopherolquinone (ATQ) (8 subjects) in olive oil or placebo (2 subjects). Safety, tolerability and PK characteristics of ATQ were assessed under fasted conditions (low dose of 0.25 g and 0.5 g) and fed conditions (range of 0.5 g to 6.0 g), during co-administration with 400 IU vitamin E (2.0 g), and following a 2.2 g total dose administered in 3 equally-divided doses of 0.735 g, and 7 hours apart. There was a 2-week interval between dosing of cohorts while a medical review of the data collected on the preceding dose was conducted. Blood samples for the measurement of ATQ concentration were collected pre-dose and up to 168 hours following dose administration. All plasma ATQ concentrations were determined using a GLP validated bioanalytical method. Blood samples for the measurement of vitamin E concentrations were collected prior to and at 24 hours following dose administration (Cohorts 1, 2, and 3) and serially for up to 24 hours in Cohorts 4 through 6 except for Cohort 4, Period 2 (vitamin E co-administration) where samples were collected for up to 96 hours. Urine was collected for the measurement of ATQ and its metabolites in pooled intervals up to 72 hours post-dose for all cohorts.

[2] = Food-effect and regimen pharmacokinetics, single 3-g daily ATQ dose (Example 5 Part 1); assay type: in vivo, human; settings: for Cmax / AUC(0-inf) / Vd/F / half-life / Tmax: male, human, plasma, oral, 3 g; for Vd/F: read-out: Vz/F
Method: The study was conducted in 2 parts. Part 1 was conducted in healthy male subjects only while Part 2 was conducted in healthy male and female subjects. The intent of this study part was to optimize the dosage regimen and diet for the multiple-dose safety and tolerance Part 2 of the study. All plasma ATQ concentrations were determined using a GLP validated bioanalytical method. ATQ was administered as an oral solution in oil (0.49 g/mL). The placebo solution consisted of olive oil alone.
The dose of 3-g ATQ was selected for Part 1 as it most likely represented the high end of the exposure spectrum selected for the subsequent tolerance trial. For Part 1, serial blood samples for the measurement of the plasma levels of ATQ were collected prior to and following each oral dose administered on Day 1 through 36 hours following the morning dose on Day 1 (or 24 hours post-evening dose).

factor II (prothrombin) = test: Extended coagulation biomarker panel: factor II; assay type: in vivo, human; settings: Part 2, 0.67 g TID, Day 4
Text: (§1) In Part 1 the extended panel was collected at screening and at check-in (Day −1) and Day 2 of each period unless the study results warranted a different sampling schedule. In Part 2, the same of the exploratory coagulation biomarkers were collected at screening, check-in, Day 4, and Day 8 in Cohorts 1 and 2, or at check-in, Day 7, and Day 14 in Cohorts 3 and 4 with the following exception: in Cohorts 3 and 4, platelet function was collected at check-in only or when medically indicated.

antithrombin (AT) = test: Extended coagulation biomarker panel: antithrombin; design: species or system human; settings: in vivo
Text: as §1

[3] = system: coagulation (PT, INR, aPTT); test: Basic coagulation panel (PT, INR, aPTT) and coagulation safety (Example 5)
Text: The INR is the ratio of a subject's prothombin time (PTtest) to the prothombin time of a normal (control) sample (PTnormal), raised to the power of the International Sensitivity Index (ISI) value for the analytical system:
“Prothrombin time” or “PT” refers to the time it takes the blood plasma of a subject to clot after the addition of a thromboplastin reagent. “Thromboplastin reagent” refers to a standardized commercial product which is used in blood coagulation assays to measure blood clotting time.
As used herein, the terms “activated partial thromboplastin time” or “aPTT” or “partial thromboplastin time” or “PTT,” refer to the time it takes the blood plasma of a subject to clot after the addition of a phospholipid (i.e., partial thromboplastin) and calcium chloride. Non-limiting examples of phospholipids for use in determining aPTT include silica and kaolin.
INR grades are used to rank the severity thresholds for the coagulation factors relative to the upper normal of limit values (ULN). The higher the INR grade the higher the severity. […] As used herein, “Grade 1” refers to an INR value of 1.1 to 1.65 in a subject. As used herein, “Grade 2” refers to an INR value of 1.65 to 2.2 in a subject. As used herein, “Grade 3” refers to an INR value greater than 2.2 in a subject.
Thus both the basic coagulation panel assessments including PT, INR, aPTT, and platelet counts were performed at screening, on Day −1, and extensively throughout the treatment period to assess the potential effect of ATQ on coagulation.
This section covers the PD effect of ATQ on the coagulation parameters PT, INR, and aPPT and the relative time course of drug induced changes in these parameters.

[4] = 3-g BID, high-fat meal, mean, N = 6
[5] = 3-g BID, standard meal, mean, N = 6
[6] = 3-g TID, high-fat meal, mean, N = 5
[7] = 3-g TID, standard meal, mean, N = 6

With `CC1=C(C)C(=O)C(CC[C@](C)(O)CCC[C@H](C)CCC[C@H](C)CCCC(C)C)=C(C)C1=O` [ATQ, alpha-tocopherolquinone] the “Increase in bioavailability with a high-fat meal” value ([1]; 0.5 g with high-fat meal versus fasted) was “over 60 fold”, the “ATQ concentration versus time profile with and without vitamin E” value ([1]; 2 g QD dose, with and without 400-IU of vitamin E) was “essentially unchanged” and the CL/F ([1]; 2.2 g (0.735 g TID), N = 8) was 22.731 L/h. The “Effect of dividing the dose on ATQ bioavailability” value ([1]; 2.2 g as 3 doses of 0.735 g 7 hours apart rather than a single unit) was “significantly increased ATQ bioavailability”, the “Baseline-adjusted ATQ concentration at 24 hours as share of Cmax” value ([1]; 24 hours post-dose) was “less than 1%” and the Tmax ([1]; male, human, plasma, oral) was 6 h. For the same compound, the “Time for ATQ concentrations to return to endogenous baseline levels” value ([1]; post-dose) was ≤ 24 h, the CL/F ([1]; single 0.5 g dose, N = 6) was 25.910[b] L/h and the CL/F ([1]; single 1.0 g dose, N = 7) was 15.950[c] L/h. For the same compound, the CL/F ([1]; single 2.0 g dose, N = 7) was 33.404[c] L/h, the CL/F ([1]; single 6.0 g dose, N = 6) was 62.824[b] L/h and the “Dose proportionality of absorption” value ([1]; single doses 0.5 g to 6.0 g after high-fat breakfast) was “dose proportional between 0.5 g and 1 g but was blunted at higher doses”. The “Absorption under fasted conditions” value ([1]; single oral doses 0.25 g and 0.5 g, fasted) was “poorly absorbed”, the “Unchanged ATQ in urine samples” value ([1]; urine collected up to 72 hours post-dose) was “not detected” and the CLpo [2, 4] was 21.4 L/h. The CLpo [2, 5] was 22.0 L/h, the CLpo [2, 6] was 18.2 L/h and the CLpo [2, 7] was 18.1 L/h. The “Overall exposure (AUC) BID versus TID” value ([2]; 3-g dose as 2×1.5-g every 12 hours or 3×1.0-g every 6 hours) was “similar”, the Cmax ([2]; 3-g BID (2×1.5 g 12 h apart), high-fat meal, baseline-adjusted, mean, N = 6, read-out: Cmax) was 13400 ng/mL and the Cmax ([2]; 3-g BID (2×1.5 g 12 h apart), standard meal, baseline-adjusted, mean, N = 6, read-out: Cmax) was 15300 ng/mL. It also gave an AUC(0-inf) ([2]; 3-g BID, high-fat meal, baseline-adjusted, mean, N = 6) of 152 µg·h/mL, a Vd/F [2, 4] of 132 L and a half-life ([2]; 3-g BID, high-fat meal, mean, N = 6, read-out: t1/2 (converted)) of 4.2 h. The Tmax ([2]; 3-g BID, high-fat meal, median, N = 6, read-out: Tmax) was 10.5 h, the AUC(0-inf) ([2]; 3-g BID, standard meal, baseline-adjusted, mean, N = 6) was 157 µg·h/mL and the Vd/F [2, 5] was 143 L. It also gave a half-life ([2]; 3-g BID, standard meal, mean, N = 6, read-out: t1/2 (converted)) of 4.34 h, a Tmax ([2]; 3-g BID, standard meal, median, N = 6, read-out: Tmax) of 6 h and a Cmax ([2]; 3-g TID (3×1.0 g 6 h apart), high-fat meal, baseline-adjusted, mean, N = 5, read-out: Cmax) of 14200 ng/mL. For the same compound, the Cmax ([2]; 3-g TID (3×1.0 g 6 h apart), standard meal, baseline-adjusted, mean, N = 6, read-out: Cmax) was 15000 ng/mL, the AUC(0-inf) ([2]; 3-g TID, high-fat meal, baseline-adjusted, mean, N = 5) was 178 µg·h/mL and the Vd/F [2, 6] was 122 L. The half-life ([2]; 3-g TID, high-fat meal, mean, N = 5, read-out: t1/2 (converted)) was 4.88 h, the Tmax ([2]; 3-g TID, high-fat meal, median, N = 5, read-out: Tmax) was 17.5 h and the AUC(0-inf) ([2]; 3-g TID, standard meal, baseline-adjusted, mean, N = 6) was 169 µg·h/mL. For the same compound, the Vd/F [2, 7] was 139 L, the half-life ([2]; 3-g TID, standard meal, mean, N = 6, read-out: t1/2 (converted)) was 5.37 h and the Tmax ([2]; 3-g TID, standard meal, median, N = 6, read-out: Tmax) was 12.7 h. For the same compound, the Cmax ([2]; single 3-g daily dose, across treatments, read-out: mean Cmax range) was 13400 to 15300 ng/mL, the half-life ([2]; single 3-g daily dose, across treatments, read-out: mean t1/2 values (range across treatments)) was 4.2 to 5.37 h and the Tmax ([2]; single 3-g daily dose, across treatments, read-out: median Tmax (range across treatments)) was 6 to 17.5 h. For the same compound, the “ATQ exposure (Cmax and AUC) high-fat versus standard meal” value ([2]; single 3-g daily dose) was “no difference”, the “Decrease from baseline activity of factor II” value (factor II (prothrombin)) was 51% and the “Effect on the activity of AT” value (antithrombin (AT)) was “did not appear to affect”. For the same compound, the “INR values reached by individual subjects” value ([3]; 0.67 g TID group, 3 of 8 subjects) was 2.3 and 3.0 (2×), the “Subjects with that grade of INR increase” value ([3]; 0.75 g BID, Grade 2) was 2 of 6 and the “Subjects with that grade of INR increase” value ([3]; 2-g/day (0.67 g TID), Grade 3, active-treated) was 3 of 8. The “Effect on coagulation (INR, PT, aPTT)” value ([3]; 3-g over 1 day, 0.33 g TID and 0.67 g TID or 0.75 g BID) was “clear effect on coagulation”, the “Effect on coagulation during prolonged dosing” value ([3]; 14 days at 0.5 g and 0.75 g BID) was “appeared to slowly abate while still on drug beyond 8 days” and the “Subjects with clinical coagulation laboratory values greater than 1.5 times the upper limit of normal (value greater than 1.65)” value ([3]; Part 1) was 5 subjects. The “Subjects with clinically relevant changes in clinical laboratory values related to treatment-emergent adverse events” value ([3]; Part 1) was “Twelve”, the “Active-treated subjects with clinically relevant changes in clinical laboratory values related to treatment-emergent adverse events” value ([3]; b179, part not stated) was “Twenty-five” and the “Subjects with study-drug related clinical coagulation laboratory values greater than 1.5 times the upper limit of normal (value greater than 1.65)” value ([3]; b179, part not stated) was 11 subjects. The “Onset of the effect on coagulation” value ([3]; following the first (high dose) of ATQ, Part 1) was 18 h, the “Time course of the effect on coagulation” value ([3]; initial increase through Day 4, second peak by Day 7 to 8) was “biphasic” and the “Onset of the effect on coagulation” value ([3]; multiple dose administration) was ≤ 48 h. For the same compound, the “Time at which most subjects approach baseline coagulation values” ([3]; post last dose) was 48 h and the “Subjects with that grade of INR increase” value ([3]; single daily doses of 3-g ATQ, Grade 2) was 4 of 12.
